Source: the SangsterLogP compilation

Assay: method code SF, from DOI: 10.2478/s11696-010-0084-9

Compound	logP
O=C(NCc1ccccn1)c1cc(Br)ccc1O	2.43
O=C(NCc1ccccc1)c1cc(Cl)ccc1O	3.08
O=C(NCc1ccccn1)c1cc(Cl)ccc1O	2.16
Cc1ccc(C(=O)NCc2ccccn2)c(O)c1	2.09
O=C(NCc1ccccn1)c1cc(Br)cc(Br)c1O	3.26
O=C(NCc1cccnc1)c1ccc(Cl)cc1O	1.74
Cc1ccc(C(=O)NCc2cccnc2)c(O)c1	1.67
O=C(NCc1ccccc1)c1cc(Cl)cc(Cl)c1O	3.64
O=C(NCc1cccnc1)c1cc(Cl)ccc1O	1.74
O=C(NCc1cccnc1)c1ccccc1O	1.18
Cc1cccc(C(=O)NCc2cccnc2)c1O	1.67
O=C(NCc1ccccn1)c1ccc(Cl)cc1O	2.16
O=C(NCc1ccccc1)c1cc(Br)ccc1O	3.53
O=C(NCc1cccnc1)c1cc(Cl)cc(Cl)c1O	2.3
O=C(NCc1ccccc1)c1ccc(Cl)cc1O	3.08
COc1cccc(C(=O)NCc2cccnc2)c1O	1.06
O=C(NCc1cccnc1)c1cc(Br)ccc1O	2.01
Cc1cccc(C(=O)NCc2ccccn2)c1O	2.09
COc1cccc(C(=O)NCc2ccccc2)c1O	2.39
O=C(NCc1ccccn1)c1cc(F)ccc1O	1.76
COc1cccc(C(=O)NCc2ccccn2)c1O	1.48
O=C(NCc1cccnc1)c1cc(Br)cc(Br)c1O	2.84
COc1ccc(C(=O)NCc2cccnc2)c(O)c1	1.06
O=C(NCc1ccccc1)c1cc(Br)cc(Br)c1O	4.18
O=C(NCc1cccnc1)c1cc(F)ccc1O	1.34
O=C(NCc1ccccc1)c1ccccc1O	2.52
